Measurements: ChEMBL document CHEMBL1135750, “Phenoxyphenyl sulfone N-formylhydroxylamines (retrohydroxamates) as potent, selective, orally bioavailable matrix metalloproteinase inhibitors” (J Med Chem, 2002)

Tests used:
THP-1 = assay: Selective inhibition of the cellular TNF alpha release from LPS-stimulated THP-1 cells; format: functional, cell-based; settings: Homo sapiens
[1] = biological target: Matrix metalloproteinase-9 (Homo sapiens, UniProt P14780); assay: In vitro selective inhibition against Matrix metalloprotease-9 (MMP-9) using fluorimetric assay
Neutrophil collagenase = Neutrophil collagenase (Homo sapiens, UniProt P22894); assay: Inhibition of Matrix metalloprotease-8 (MMP-8) in fluorimetric assay
Stromelysin-1 = Stromelysin-1 (Homo sapiens, UniProt P08254); assay: Inhibition of Matrix metalloprotease-3 (MMP-3) in fluorimetric assay
Interstitial collagenase = biological target: T1, Interstitial collagenase (Homo sapiens, UniProt P03956); assay: In vitro selective inhibition against matrix metalloprotease-1 (MMP-1) using a fluorimetric assay
T1 sequence (P03956 whole entry): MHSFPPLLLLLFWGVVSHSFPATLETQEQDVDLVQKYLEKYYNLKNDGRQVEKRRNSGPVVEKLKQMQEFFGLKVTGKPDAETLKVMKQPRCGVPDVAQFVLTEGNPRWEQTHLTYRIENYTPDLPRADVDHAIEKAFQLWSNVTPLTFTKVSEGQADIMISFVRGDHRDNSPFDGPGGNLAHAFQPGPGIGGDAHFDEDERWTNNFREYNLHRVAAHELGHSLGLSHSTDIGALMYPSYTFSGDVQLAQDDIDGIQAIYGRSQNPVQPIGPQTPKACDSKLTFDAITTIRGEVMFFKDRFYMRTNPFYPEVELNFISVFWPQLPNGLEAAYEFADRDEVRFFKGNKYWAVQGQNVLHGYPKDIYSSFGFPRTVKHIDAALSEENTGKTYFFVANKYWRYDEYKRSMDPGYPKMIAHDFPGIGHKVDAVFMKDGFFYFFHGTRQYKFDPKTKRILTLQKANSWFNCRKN

Matrilysin = biological target: T2, Matrilysin (Homo sapiens, UniProt P09237); assay: Inhibition of Matrix metalloprotease-7 (MMP-7) in fluorimetric assay
T2 sequence (P09237 whole entry): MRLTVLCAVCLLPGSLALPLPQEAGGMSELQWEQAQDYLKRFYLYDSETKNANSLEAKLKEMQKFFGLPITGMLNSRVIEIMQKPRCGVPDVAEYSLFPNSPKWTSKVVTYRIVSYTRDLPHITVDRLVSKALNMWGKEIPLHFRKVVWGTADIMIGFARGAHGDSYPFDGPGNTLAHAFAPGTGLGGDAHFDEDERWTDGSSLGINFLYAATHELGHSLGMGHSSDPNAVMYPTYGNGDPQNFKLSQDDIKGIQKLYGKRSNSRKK

Collagenase 3 = Collagenase 3 (Homo sapiens, UniProt P45452)
Description: Inhibition of Matrix metalloprotease-13 (MMP-13) in fluorimetric assay

[2] = biological target: 72 kDa type IV collagenase (Homo sapiens, UniProt P08253); assay: In vitro selective inhibition against matrix metalloprotease-2 (MMP-2) using fluorimetric assay
Chain of 72 kDa type IV collagenase (P08253 whole entry): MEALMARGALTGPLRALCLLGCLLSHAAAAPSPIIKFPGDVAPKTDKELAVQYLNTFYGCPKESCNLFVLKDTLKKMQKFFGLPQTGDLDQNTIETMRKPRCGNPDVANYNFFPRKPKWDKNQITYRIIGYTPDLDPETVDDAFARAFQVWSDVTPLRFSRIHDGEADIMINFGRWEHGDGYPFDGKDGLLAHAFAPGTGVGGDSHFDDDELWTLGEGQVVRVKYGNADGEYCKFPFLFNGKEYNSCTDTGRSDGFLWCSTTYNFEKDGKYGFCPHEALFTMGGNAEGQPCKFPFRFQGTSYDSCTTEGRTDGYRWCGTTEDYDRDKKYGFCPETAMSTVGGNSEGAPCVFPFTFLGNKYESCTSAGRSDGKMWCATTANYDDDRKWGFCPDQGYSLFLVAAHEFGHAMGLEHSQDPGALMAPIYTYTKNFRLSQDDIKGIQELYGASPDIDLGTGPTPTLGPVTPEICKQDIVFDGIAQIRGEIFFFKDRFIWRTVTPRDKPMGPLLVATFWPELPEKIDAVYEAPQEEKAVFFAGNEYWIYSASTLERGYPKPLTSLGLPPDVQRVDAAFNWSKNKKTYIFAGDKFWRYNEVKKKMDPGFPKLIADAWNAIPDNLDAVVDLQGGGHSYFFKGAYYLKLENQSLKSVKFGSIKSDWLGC

Chain of Matrix metalloproteinase-9 (P14780 whole entry): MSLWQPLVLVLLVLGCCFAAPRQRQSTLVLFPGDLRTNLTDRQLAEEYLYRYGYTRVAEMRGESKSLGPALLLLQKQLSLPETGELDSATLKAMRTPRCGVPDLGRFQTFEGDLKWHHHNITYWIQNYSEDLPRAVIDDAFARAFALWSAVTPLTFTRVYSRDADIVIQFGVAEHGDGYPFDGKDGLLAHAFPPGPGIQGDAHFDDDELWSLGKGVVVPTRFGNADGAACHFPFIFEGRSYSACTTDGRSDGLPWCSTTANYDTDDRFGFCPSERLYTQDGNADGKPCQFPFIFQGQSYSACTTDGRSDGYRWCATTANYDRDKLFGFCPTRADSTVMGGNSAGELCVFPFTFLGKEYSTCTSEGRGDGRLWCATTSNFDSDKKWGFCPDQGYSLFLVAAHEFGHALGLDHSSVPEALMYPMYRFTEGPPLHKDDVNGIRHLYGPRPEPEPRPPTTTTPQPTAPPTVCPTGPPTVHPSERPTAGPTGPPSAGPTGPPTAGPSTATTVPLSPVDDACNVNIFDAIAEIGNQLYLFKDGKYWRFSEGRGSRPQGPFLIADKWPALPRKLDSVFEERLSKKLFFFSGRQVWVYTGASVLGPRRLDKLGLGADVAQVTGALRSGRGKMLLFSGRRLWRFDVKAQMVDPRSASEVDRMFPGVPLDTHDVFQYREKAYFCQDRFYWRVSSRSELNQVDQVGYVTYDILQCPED
Chain of Neutrophil collagenase (P22894 whole entry): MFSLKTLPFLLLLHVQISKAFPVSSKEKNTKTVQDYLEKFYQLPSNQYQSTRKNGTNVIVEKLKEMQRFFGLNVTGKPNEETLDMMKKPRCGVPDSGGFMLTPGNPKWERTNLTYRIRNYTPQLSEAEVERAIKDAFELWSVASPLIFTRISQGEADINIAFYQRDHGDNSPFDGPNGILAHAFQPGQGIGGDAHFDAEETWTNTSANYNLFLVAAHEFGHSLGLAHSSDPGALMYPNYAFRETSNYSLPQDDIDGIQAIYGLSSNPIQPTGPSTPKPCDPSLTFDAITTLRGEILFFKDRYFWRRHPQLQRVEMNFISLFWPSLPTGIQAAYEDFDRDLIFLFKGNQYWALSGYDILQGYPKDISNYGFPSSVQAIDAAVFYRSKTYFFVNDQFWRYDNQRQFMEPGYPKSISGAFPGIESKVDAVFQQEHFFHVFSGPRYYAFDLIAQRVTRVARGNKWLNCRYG
Chain of Stromelysin-1 (P08254 whole entry): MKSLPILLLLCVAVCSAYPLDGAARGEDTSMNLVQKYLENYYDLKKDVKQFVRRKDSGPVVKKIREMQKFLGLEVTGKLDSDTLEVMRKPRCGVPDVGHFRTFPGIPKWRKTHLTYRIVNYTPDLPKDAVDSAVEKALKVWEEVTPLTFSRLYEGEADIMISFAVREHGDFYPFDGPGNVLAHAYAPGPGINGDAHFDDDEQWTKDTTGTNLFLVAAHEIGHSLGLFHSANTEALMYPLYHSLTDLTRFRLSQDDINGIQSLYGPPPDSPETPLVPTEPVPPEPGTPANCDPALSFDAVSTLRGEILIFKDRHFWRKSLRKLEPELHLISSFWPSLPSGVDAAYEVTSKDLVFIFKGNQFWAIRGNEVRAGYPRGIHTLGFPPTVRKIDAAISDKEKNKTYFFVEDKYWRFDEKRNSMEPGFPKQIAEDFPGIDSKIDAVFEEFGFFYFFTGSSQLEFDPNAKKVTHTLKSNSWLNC

CC1(C)OC[C@H]([C@@H](CS(=O)(=O)c2ccc(Oc3ccc(OC(F)(F)F)cc3)cc2)N(O)C=O)O1 (stereo in doubt)
IC50 (THP-1): > 50000 nM | IC50 [1]: 0.5 nM | IC50 (Neutrophil collagenase): 5 nM | IC50 (Stromelysin-1): 12 nM | IC50 (Interstitial collagenase): 8900 nM | IC50 (Matrilysin): 11000 nM | IC50 (Collagenase 3): 3.3 nM | IC50 [2]: 0.78 nM
